Reference: patent publication US10679730B2, “Prognostic and predictive breast cancer signature” (The University of Chicago, priority 2013, dated 2020)

Legend:
Assay type in all cases: cell-based, human
[1] = tested on: TET1 mRNA in 1833 cells; assay: qRT-PCR for TET1 mRNA after demethylation treatment of 1833 cells; settings: 1833 cells treated with 5-azacytidine, GAPDH normalization (FIG. 18D)
Description: (§1) Total RNA was isolated from cells by using miRNeasy Mini Kit (Qiagen) following the manufacturer's instructions. Quantitative RT-PCR (qRT-PCR) was performed as described (4). The qPCR primers for human or murine HMGA2, TET1, HOXA genes and GAPDH were Taqman and were purchased from Applied Biosystems. Cells were subjected to 5-azacytidine (1 or 3.6 μM), decitabine (5-aza-dC; 220 or 440 nM), or mock treatment by addition into cell culture at indicated concentration. Cells were treated daily. RNA and protein were isolated respectively.

[2] = tested on: HOXA7 mRNA in 1833 cells; assay: qRT-PCR for HOXA7 mRNA after demethylation treatment of 1833 cells; settings: 1833 cells treated with 5-azacytidine, GAPDH normalization (FIG. 20F)
Description: as §1

[3] = tested on: HOXA9 in 1833 cells; assay: qRT-PCR / immunoblotting for HOXA9 after demethylation treatment of 1833 cells; settings: 1833 cells treated with demethylation reagent; qRT-PCR / immunoblotting (FIG. 20G, 27A, 27C)
Description: Total RNA was isolated from cells by using miRNeasy Mini Kit (Qiagen) following the manufacturer's instructions. Quantitative RT-PCR (qRT-PCR) was performed as described (4). The qPCR primers for human or murine HMGA2, TET1, HOXA genes and GAPDH were Taqman and were purchased from Applied Biosystems.
Cells were lysed in complete lysis buffer (pH 7.5) by using Nuclear Extract Kit (Active Motif) following the manufacturer's protocols. Proteins were measured, separated, and probed as described (4). Antibodies specific for each protein were HMGA2 (61042; Active Motif), TET1 (sc-163446; Santa Cruz Biotechnologies), HOXA7 (09-086; Millipore), HOXA9 (09-178; Millipore), GAPDH (ab9484; Abcam), and Flag-M1 (F3040; Sigma).
(§2) Cells were subjected to 5-azacytidine (1 or 3.6 μM), decitabine (5-aza-dC; 220 or 440 nM), or mock treatment by addition into cell culture at indicated concentration. Cells were treated daily. RNA and protein were isolated respectively.

[4] = tested on: 1833 cells; assay: In vitro cell invasion assay (Matrigel); settings: 1833 cells treated with demethylation reagent (FIG. 21D, 27B)
Description: as §2
Cell proliferation assays were performed by using the CellTiter-Blues assay (Promega) as described (4). Invasion assays were performed as described (4) with modifications. Briefly, the inserts were coated with Matrigel basement membrane matrix (BD Biosciences). To assess the cell invasion ability, […] cells were seeded on top of the polymerized Matrigel in serum-free medium, and complete medium (10% FBS) was placed in the lower compartment. After 24 h, cells on the lower part of the insert were stained with BD Calcein AM Fluorescent Dye. The inserts with the invaded cells were incubated in dissociation buffer (Travigen) with gentle shaking. Fluorescence measurements were used to record data with 485 nm for excitation and 530 nm for emission.

**Q.** With `Nc1ncn([C@@H]2O[C@H](CO)[C@@H](O)[C@H]2O)c(=O)n1` [5-azacytidine] as the compound, how does the TET1 expression [1] read?
**A.** The TET1 expression was “increase in TET1 expression”.

**Q.** What about the HOXA7 expression [2] of the same compound?
**A.** Its HOXA7 expression is “dramatic increase”.

**Q.** What about the HOXA9 expression [3] of the same compound?
**A.** The HOXA9 expression was “dramatic increase”.

**Q.** And the cell invasion [4]?
**A.** Its cell invasion is “decreased cell invasion”.
